According to patent US20110207154A1, “METHOD FOR DETERMINATION OF MARIN[…] AND COMPOUNDS […] SUCH METHOD” (SCOTT & WHITE HEALTHCARE, priority 2010, published 2011):

Tested on: our antisera (rabbit polyclonal antisera against BSA-MBG conjugate)
Test: competition ELISA with rabbit polyclonal anti-MBG antisera
Format: binding
Conditions: competition assay
Method: Initially, both BSA and BLG were employed as the carrier protein. In the former case, excess BSA was added to the reaction mixture to inhibit anti-BSA antibodies from binding to the conjugate. When the BLG-marinobufagenin congugate became available, BLG-marinobufagenin was used for antibody detection. This ELISA format was used as the basis for a competitive ELISA for the detection of marinobufagenin in body specimens.
In an alternative approach, rabbits were immunized with the BSA-MBG conjugate for the production of polyclonal antisera. […] The resulting polyclonal sera were assessed for the presence of MBG-specific antibodies by ELISA (FIG. 11). In this particular format, two of the rabbits produced a strong humoral immune response that allowed dilution of the primary (rabbit) antiserum down to 1 in 4*10^6, even when using a relatively insensitive photometric readout. […] This particular assay has now been equipped with a chemifluorescent readout (using commercially available reagents) and has now reached the target sensitivity of less than 10 pg MBG/ml. As expected, rat urine samples can be measured without prior treatment, but rat plasma and/or serum samples require solid phase extraction using a C8 solid phase and acetonitrile in the mobile phase. Upon drying the eluate of obtained from the extraction cartridge by vacuum centrifugation, MBG can be measured in the circulation of the rat.

For `C[C@]12CC[C@H](O)C[C@H]1CC[C@@H]1[C@@H]2CC[C@]2(C)[C@@H](c3ccc(=O)oc3)C[C@H]3O[C@]132` [RBG, resibufogenin], the cross-reactivity with antisera was “only measurable at extremely high doses”.
